target: T1, Human FAAH (Homo sapiens, UniProt O00519); experiment: FAAH assay (glutamate dehydrogenase-coupled, oleamide substrate, absorbance at 340 nm); assay type: biochemical; settings: irreversible inhibition potency
T1 construct: made in house
T1 sequence (O00519 32-579 limits assumed): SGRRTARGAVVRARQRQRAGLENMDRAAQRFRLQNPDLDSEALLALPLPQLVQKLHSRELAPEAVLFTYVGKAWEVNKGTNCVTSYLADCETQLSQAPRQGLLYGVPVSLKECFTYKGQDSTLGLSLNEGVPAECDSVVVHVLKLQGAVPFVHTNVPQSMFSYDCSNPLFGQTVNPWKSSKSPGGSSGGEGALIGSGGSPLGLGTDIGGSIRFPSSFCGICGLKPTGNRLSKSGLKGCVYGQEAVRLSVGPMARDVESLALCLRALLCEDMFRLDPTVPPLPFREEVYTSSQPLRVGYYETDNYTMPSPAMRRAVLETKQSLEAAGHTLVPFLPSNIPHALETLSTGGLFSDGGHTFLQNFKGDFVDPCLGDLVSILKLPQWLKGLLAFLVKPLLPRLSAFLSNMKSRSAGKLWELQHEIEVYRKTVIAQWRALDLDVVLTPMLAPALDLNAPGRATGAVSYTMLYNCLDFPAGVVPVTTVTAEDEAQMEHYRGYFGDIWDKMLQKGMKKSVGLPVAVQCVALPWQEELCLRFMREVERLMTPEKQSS
Description: A FAAH assay may be carried out in 384-well clear polystyrene plates in a total volume of 50 μl per well. All percents are by volume. To each well was placed the reaction mixture (40 μl) containing 1-4 nM FAAH, 50 mM NaPi, pH 7.4, 3 mM α-ketoglutarate, 0.15 mM NADH, 7.5 U/ml glutamate dehydrogenase, 2 mM ADP, 1 mM EDTA, and 0.1% Triton X-100 (The concentration shown for each component was the final concentration in the assay). To this mixture was added 5 μl of a compound of Examples 1 to 20 at various concentrations prepared in 50% DMSO (or 5 μl 50% DMSO for controls). This was immediately followed by the addition of 5 μl oleamide (500 μM) dissolved in 75% EtOH/25% DMSO and the reaction mixture was mixed for 1.5 min. The final concentrations of DMSO and EtOH in the assay are each 7.5%. The reactions was then incubated at 30° C. and the absorbance at 340 nm was collected over a period of 90 min with readings taken in 30-second intervals using SpectraMax Plus^384 Microplate Spectrophotometer (Molecular Devices, Sunnyvale, Calif.). Human FAAH used in the assay was prepared as described in the patent application WO 2006/067613. The purity of the enzyme used was greater than 98% based on an analysis by SDS-polyacrylamide gel electrophoresis followed by Coomassie Blue staining.
Initial velocity data (V) is obtained from the slopes of the initial progressive curves. They are plotted as a function of substrate concentration and fit to the Michaelis-Menten equation (1) using Prism (GraphPad Software, Inc., San Diego, Calif.) software to obtain Km and Vmax values.
To obtain potencies of irreversible inhibitors, progressive curves consistent with first order inhibition kinetics (two-step irreversible inhibition mechanism) are fit to equation (2) by nonlinear least squares regressions to determine kobs values at each inhibitor concentration, where [P]t is the absorbance at time t, V0 is a constant related to the steady state rate of the uninhibited reaction, and kobs is the first order rate constant for enzyme inactivation. The inhibitor dissociation constant (Ki) and the first order rate
constant of enzyme inactivation at infinite inhibitor concentration (kinact) are then obtained by fitting the kobs vs. [I] curves to equation (3).

Row | Compound | hFAAH KInact/K
1 | O=C(Nc1cccnn1)N1CCC(=Cc2cccc(OC3CCOCC3)c2)CC1 [Example 44, N-pyridazin-3-yl-4-[3-(tetrahydro-2H-pyran-4-yloxy)benzylidene]piperidine-1-carboxamide] | 563 M⁻¹ s⁻¹
2 | O=C(Nc1cccnn1)N1CCC(=Cc2cccc(OCC3CCCO3)c2)CC1 (stereo not drawn) [Example 45, N-pyridazin-3-yl-4-[3-(tetrahydrofuran-2-ylmethoxy)benzylidene]piperidine-1-carboxamide] | 573 M⁻¹ s⁻¹
3 | CC(C)OCCOc1cccc(C=C2CCN(C(=O)Nc3cccnn3)CC2)c1 [Example 47, 4-[3-(2-isopropoxyethoxy)benzylidene]-N-pyridazin-3-ylpiperidine-1-carboxamide] | 11900 M⁻¹ s⁻¹
4 | CC(C)(C)CCOc1cccc(C=C2CCN(C(=O)Nc3cccnn3)CC2)c1 [Example 48, 4-[3-(3,3-dimethylbutoxy)benzylidene]-N-pyridazin-3-ylpiperidine-1-carboxamide] | 2580 M⁻¹ s⁻¹
5 | COC(C)(C)CCOc1cccc(C=C2CCN(C(=O)Nc3cccnn3)CC2)c1 [Example 49, 4-[3-(3-methoxy-3-methylbutoxy)benzylidene]-N-pyridazin-3-ylpiperidine-1-carboxamide] | 1290 M⁻¹ s⁻¹
6 | CCC(C)COc1cccc(C=C2CCN(C(=O)Nc3cccnn3)CC2)c1 (stereo not drawn) [Example 50, 4-[3-(2-methylbutoxy)benzylidene]-N-pyridazin-3-ylpiperidine-1-carboxamide] | 4500 M⁻¹ s⁻¹
7 | CCCCOc1cccc(C=C2CCN(C(=O)Nc3cccnn3)CC2)c1 [Example 51, 4-(3-butoxybenzylidene)-N-pyridazin-3-ylpiperidine-1-carboxamide] | 8350 M⁻¹ s⁻¹
8 | Cc1cccc(OCCOc2cccc(C=C3CCN(C(=O)Nc4cccnn4)CC3)c2)c1 [Example 52, 4-{3-[2-(3-methylphenoxy)ethoxy]benzylidene}-N-pyridazin-3-ylpiperidine-1-carboxamide] | 31600 M⁻¹ s⁻¹
9 | O=C(Nc1cccnn1)N1CCC(=Cc2cccc(OCC3CCOC3)c2)CC1 (stereo not drawn) [Example 53, N-pyridazin-3-yl-4-[3-(tetrahydrofuran-3-ylmethoxy)benzylidene]piperidine-1-carboxamide] | 1750 M⁻¹ s⁻¹
10 | Cc1cc(COc2cccc(C=C3CCN(C(=O)Nc4cccnn4)CC3)c2)no1 [Example 54, 4-{3-[(5-methylisoxazol-3-yl)methoxy]benzylidene}-N-pyridazin-3-ylpiperidine-1-carboxamide] | 1880 M⁻¹ s⁻¹
11 | CN1CCCCC1COc1cccc(C=C2CCN(C(=O)Nc3cccnn3)CC2)c1 (stereo not drawn) [Example 55, 4-{3-[(1-methylpiperidin-2-yl)methoxy]benzylidene}-N-pyridazin-3-ylpiperidine-1-carboxamide] | 35 M⁻¹ s⁻¹
12 | COC(COc1cccc(C=C2CCN(C(=O)Nc3cccnn3)CC2)c1)c1ccccc1 (stereo not drawn) [Example 56, 4-[3-(2-methoxy-2-phenylethoxy)benzylidene]-N-pyridazin-3-ylpiperidine-1-carboxamide] | 149 M⁻¹ s⁻¹
13 | O=C(Nc1cccnn1)N1CCC(=Cc2cccc(OCC3CC=CCC3)c2)CC1 (stereo not drawn) [Example 57, 4-[3-(cyclohex-3-en-1-ylmethoxy)benzylidene]-N-pyridazin-3-ylpiperidine-1-carboxamide] | 16300 M⁻¹ s⁻¹
14 | CO[C@@H](COc1cccc(C=C2CCN(C(=O)Nc3cccnn3)CC2)c1)c1ccccc1 [Example 58, 4-{3-[(2R)-2-methoxy-2-phenylethoxy]benzylidene}-N-pyridazin-3-ylpiperidine-1-carboxamide] | 473 M⁻¹ s⁻¹
15 | O=C(Nc1cccnn1)N1CCC(=Cc2cccc(OCCc3cnoc3)c2)CC1 [Example 60, 4-[3-(2-isoxazol-4-ylethoxy)benzylidene]-N-pyridazin-3-ylpiperidine-1-carboxamide] | 2190 M⁻¹ s⁻¹
16 | CC(C)C(C)Oc1cccc(C=C2CCN(C(=O)Nc3cccnn3)CC2)c1 (stereo not drawn) [Example 61, 4-[3-(1,2-dimethylpropoxy)benzylidene]-N-pyridazin-3-ylpiperidine-1-carboxamide] | 1420 M⁻¹ s⁻¹
17 | CC(C)CCOc1cccc(C=C2CCN(C(=O)Nc3cccnn3)CC2)c1 [Example 62, 4-[3-(3-methylbutoxy)benzylidene]-N-pyridazin-3-ylpiperidine-1-carboxamide] | 15200 M⁻¹ s⁻¹
18 | Cc1cc(COc2cccc(C=C3CCN(C(=O)Nc4cccnn4)CC3)c2)c(C(F)(F)F)o1 [Example 63, 4-(3-{[5-methyl-2-(trifluoromethyl)-3-furyl]methoxy}benzylidene)-N-pyridazin-3-ylpiperidine-1-carboxamide] | 131 M⁻¹ s⁻¹
19 | CCC(Oc1cccc(C=C2CCN(C(=O)Nc3cccnn3)CC2)c1)C(C)C (stereo not drawn) [Example 64, 4-[3-(1-ethyl-2-methylpropoxy)benzylidene]-N-pyridazin-3-ylpiperidine-1-carboxamide] | 379 M⁻¹ s⁻¹
20 | Cc1noc(C)c1COc1cccc(C=C2CCN(C(=O)Nc3cccnn3)CC2)c1 [Example 65, 4-{3-[(3,5-dimethylisoxazol-4-yl)methoxy]benzylidene}-N-pyridazin-3-ylpiperidine-1-carboxamide] | 130 M⁻¹ s⁻¹
21 | COCCOc1cccc(C=C2CCN(C(=O)Nc3cccnn3)CC2)c1 [Example 66, 4-[3-(2-methoxyethoxy)benzylidene]-N-pyridazin-3-ylpiperidine-1-carboxamide] | 503 M⁻¹ s⁻¹
22 | Cc1cccc(COc2cccc(C=C3CCN(C(=O)Nc4cccnn4)CC3)c2)n1 [Example 67, 4-{3-[(6-methylpyridin-2-yl)methoxy]benzylidene}-N-pyridazin-3-ylpiperidine-1-carboxamide] | 370 M⁻¹ s⁻¹
23 | O=C(Nc1cccnn1)N1CCC(=Cc2cccc(OCc3nccs3)c2)CC1 [Example 68, N-pyridazin-3-yl-4-[3-(1,3-thiazol-2-ylmethoxy)benzylidene]piperidine-1-carboxamide] | 452 M⁻¹ s⁻¹
24 | Cc1cc(COc2cccc(C=C3CCN(C(=O)Nc4cccnn4)CC3)c2)nn1C [Example 70, 4-{3-[(1,5-dimethyl-1H-pyrazol-3-yl)methoxy]benzylidene}-N-pyridazin-3-ylpiperidine-1-carboxamide] | 116 M⁻¹ s⁻¹
25 | O=C(Nc1cccnn1)N1CCC(=Cc2cccc(OCc3cccc(C(F)(F)F)n3)c2)CC1 [Example 71, N-pyridazin-3-yl-4-(3-{[6-(trifluoromethyl)pyridin-2-yl]methoxy}benzylidene)piperidine-1-carboxamide] | 294 M⁻¹ s⁻¹
26 | O=C(Nc1cccnn1)N1CCC(=Cc2cccc(OCCCC(F)(F)F)c2)CC1 [Example 72, N-pyridazin-3-yl-4-[3-(4,4,4-trifluorobutoxy)benzylidene]piperidine-1-carboxamide] | 16800 M⁻¹ s⁻¹
27 | O=C(Nc1cccnn1)N1CCC(=Cc2cccc(OCc3ccc(C(F)(F)F)cn3)c2)CC1 [Example 73, N-pyridazin-3-yl-4-(3-{[5-(trifluoromethyl)pyridin-2-yl]methoxy}benzylidene)piperidine-1-carboxamide] | 1470 M⁻¹ s⁻¹
28 | Cc1ccc(COc2cccc(C=C3CCN(C(=O)Nc4cccnn4)CC3)c2)cn1 [Example 74, 4-{3-[(6-methylpyridin-3-yl)methoxy]benzylidene}-N-pyridazin-3-ylpiperidine-1-carboxamide] | 188 M⁻¹ s⁻¹
29 | O=C(Nc1cccnn1)N1CCC(=Cc2cccc(OCCc3ccccc3)c2)CC1 [Example 75, 4-[3-(2-phenylethoxy)benzylidene]-N-pyridazin-3-ylpiperidine-1-carboxamide] | 36139 M⁻¹ s⁻¹
30 | O=C(Nc1cccnn1)N1CCC(=Cc2cccc(OCC3CCOCC3)c2)CC1 [Example 76, N-pyridazin-3-yl-4-[3-(tetrahydro-2H-pyran-4-ylmethoxy)benzylidene]piperidine-1-carboxamide] | 2548 M⁻¹ s⁻¹

Source: patent US20110144159A1, “ETHER BENZYLIDENE PIPERIDINE ARYL CARBOXAMIDE COMPOUNDS USEFUL AS FAAH INHIBITORS” (Pfizer Inc, priority 2008, published 2011)
